How the values were obtained:
Human leukocyte elastase = target: T1, Human leukocyte elastase (Homo sapiens, UniProt P08246); assay: Elastase-mediated cleavage of N-Ac-AA-DOPE to DOPE (TLC, HPLC); assay type: biochemical; conditions: overnight, 37° C.
T1 construct: purchased Calbiochem (San Diego, Calif.)
T1 sequence (P08246 30-247 limits assumed): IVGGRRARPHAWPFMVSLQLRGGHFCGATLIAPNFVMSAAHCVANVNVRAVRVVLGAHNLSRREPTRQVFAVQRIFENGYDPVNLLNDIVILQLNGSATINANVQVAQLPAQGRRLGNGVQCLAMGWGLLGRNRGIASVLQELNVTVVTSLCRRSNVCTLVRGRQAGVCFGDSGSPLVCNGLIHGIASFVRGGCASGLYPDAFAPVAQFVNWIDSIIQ
Procedure: Cleavage of N-Ac-ala-ala-DOPE to DOPE by elastase was monitored by thin layer chromatography (TLC). The chemical structure of N-Ac-ala-ala-DOPE and its postulated scheme of conversion to DOPE by enzymatic cleavage is shown in FIG. 1. 100-200 nmol of N-Ac-AA-DOPE SUVs were incubated with 1 mg enzyme in 0.1 ml overnight at 37° C. Human leukocyte elastase was purchased from Calbiochem (San Diego, Calif.). Lipid was extracted by organic phase separation (Bligh and Dyer, 1959) twice. Collected lipid was dried under N^2 stream and exposed to vacuum for 4 hours-overnight. Samples were resuspended in chloroform and spotted onto TLC plates. […]
Elastase and proteinase K mediated cleavage of N-Ac-AA-DOPE was quantitated using liposomes composed of N-Ac-AA-DOPE and DOTAP, a positively charged lipid. […] After treatment with elastase or proteinase K the reduction in the amount of N-Ac-AA-DOPE was monitored by HPLC (FIG. 4). […]
Collected lipid was dried under a N2 stream and exposed to vacuum for 4 hours-overnight. […] The N-Ac-AA-DOPE peak was detected using a gradient of 59-55% isopropanol:4-8% water. Flow rate was 1.5 ml/min, column temperature was set at 45° C., and peaks were detected by a UV detector set at 205 nm. Lipid peaks were quantitated in comparison to standard curves generated by injecting 5-200 nmol of DOTAP or N-Ac-AA-DOPE and monitoring 205 nm signal. […]

proteinase K = proteinase K (Parengyodontium album, UniProt P06873); assay: Proteinase K-mediated cleavage of N-Ac-AA-DOPE (TLC, 31P-NMR, HPLC); assay type: biochemical
Procedure: Several proteases were tested to determine whether an enzyme with similar substrate specificity could be used as a model for elastase mediated cleavage of N-Ac-AA-DOPE. Proteinase K is a serine protease that, similarly to elastase, can cleave at peptide bonds C-terminal to aliphatic residues.
Subsequently, proteinase K, which has a similar substrate specificity to elastase, was used to model the elastase effect because of the lower cost of the enzyme. Referring to FIG. 3, samples A and C contained pure N-acetyl-ala-ala-DOPE and pure DOPE, respectively; sample B consisted of multilamellar liposomes, prepared as described hereinbelow, composed of pure N-acetyl-ala-ala-DOPE (2 μmole total phospholipid), which were incubated in 200 μl of 154 mM NaCl, 10 mM TES, 0.1 mM EDTA at pH 7.4 and 37 ° C. for two hours in the presence of 1 mg of proteinase K. After the first incubation, another equal amount of proteinase K was added and the sample was incubated for another 2 hours. All three samples were dissolved into a final concentration of 5% deoxycholate, 50 mM EDTA and 10 mM HEPES at pH 8 for proton decoupled ^31P NMR.
The conversion of N-Ac-AA-DOPE to DOPE was also monitored by ^31P-NMR analysis. N-Ac-AA-DOPE LUVs were prepared and treated with or without proteinase K (1.5 mg protein/100 nmol lipid) overnight at 37° C. Samples were mixed with buffer (10% deoxycholate, 100 mM EDTA, 20 mM Hepes) and deuterium oxide (Cambridge Isotope Laboratories, Woburn, Mass.) (1:4:2) and transferred to 5 mm NMR tubes. Samples were monitored at room temperature in a Bruker AC300 spectrometer operating at 121.5 MHz, with […] 90° radio frequency pulse for proton decoupling and set to 2 sec interpulse delay to avoid signal saturation. Sweep width was set at 50 kHz. 1 Hz line broadening was applied to all spectra.
Elastase and proteinase K mediated cleavage of N-Ac-AA-DOPE was quantitated using liposomes composed of N-Ac-AA-DOPE and DOTAP, a positively charged lipid. DOTAP was included to provide a counterbalancing positive charge, and was used as a standard by which different samples could be normalized and compared. After treatment with elastase or proteinase K the reduction in the amount of N-Ac-AA-DOPE was monitored by HPLC (FIG. 4). Liposomes composed of DOTAP/N-Ac-AA-DOPE (1:1) were incubated with enzyme under given conditions. Lipid was extracted by the Bligh-Dyer procedure twice.
Collected lipid was dried under a N2 stream and exposed to vacuum for 4 hours-overnight. Samples were resuspended in 100% ethanol and injected in 30 ul aliquots into Spherisorb silica columns (150×4.6 mm, […], Keystone Scientific). HPLC was performed using a hexane:isopropanol:water:TFA mobile phase. Hexane and TFA were held constant at 37% and 0.2%, respectively. The N-Ac-AA-DOPE peak was detected using a gradient of 59-55% isopropanol:4-8% water. Flow rate was 1.5 ml/min, column temperature was set at 45° C., and peaks were detected by a UV detector set at 205 nm. Lipid peaks were quantitated in comparison to standard curves generated by injecting 5-200 nmol of DOTAP or N-Ac-AA-DOPE and monitoring 205 nm signal. Percent cleavage was calculated by normalizing peaks to DOTAP, then determining the decrease in N-Ac-AA-DOPE peak size relative to starting amounts.
To verify that the cleavage of N-Ac-AA-DOPE was due to proteinase K enzymatic activity, liposomes were treated with heat inactivated proteinase K. Proteinase K was inactivated by heating at 95° C. for 1 hour, after which the enzyme was incapable of cleaving the chromogenic substrate N-Ac-AAA-pNA. […] In these experiments liposomes, prepared as described hereinbelow, were composed of 100% N-Acetyl-ala-ala-DOPE and were then extruded to approximately 0.2 microns diameter. Fifty micrograms of liposomal lipid was incubated alone or with one unit of HLE overnight at 37° C. […]

S. griseus (“pronase”) = assay: Cleavage of N-Ac-ala-ala-DOPE by pronase (HPLC); assay type: biochemical; conditions: DOTAP/N-acetyl-ala-ala-PE 1:1 SUVs, 100 nmole, 0.5 or 1.0 mg enzyme, overnight, 37 degrees C.
Procedure: (§1) To compare the effect of different proteolytic enzymes on the cleavage of N-acetyl-ala-ala-DOPE, small unilamellar liposomes composed of DOTAP and N-acetyl-ala-ala-PE (1:1 molar ratio, 100 nmole), prepared as described hereinabove, were incubated overnight at 37 degrees C. with either 0.5 mg (experiment 1) or 1.0 mg (experiment 2) of: S. caespitosus protease, S. priseus (“pronase”), peptidase, chymotrypsin, trypsin, protease type I, proteinase K, or with no enzyme added.
(§2) Subsequently, lipid was extracted from these preparations by organic phase separation, and dried under vacuum. The dried lipid was suspended in ethanol, and the resulting lipidic solution was then injected into a normal phase silica column. Analysis was by HPLC, as described above. Lipid peaks were quantitated, and the amount of lipid cleavage was calculated as a percentage of the starting lipid.

[1] = tested on: S. caespitosus protease, peptidase, chymotrypsin, trypsin, protease type I; assay: Cleavage of N-Ac-ala-ala-DOPE by other proteases (HPLC); assay type: biochemical; conditions: DOTAP/N-acetyl-ala-ala-PE 1:1 SUVs, 100 nmole, 0.5 or 1.0 mg enzyme, overnight, 37 degrees C.
Procedure: as §1, §2

[2] = target: T2, Human leukocyte elastase (HLE) (Homo sapiens, UniProt P08246); assay: Cleavage of MeO-suc-ala-ala-pro-val-DOPE by HLE (TLC, 31P-NMR); assay type: biochemical; conditions: 2 hours
T2 construct: purchased Calbiochem (San Diego, Calif.)
T2 sequence (P08246 30-247 limits assumed): T1 sequence (P08246 30-247 limits assumed)
Procedure: To determine if the peptide-lipid MeO-suc-ala-ala-pro-val-DOPE (SEQ ID NO:42) is also a suitable substrate for elastase mediated cleavage 50 nmol of MeO-suc-ala-ala-pro-val-DOPE liposomes (SUVs) were incubated with 0, 2.5, 5, 10, or 20 ug HLE (from Calbiochem; 20 units/mg protein; 1 unit=amount of enzyme that will hydrolyze 1.0 umol of MeO-suc-ala-ala-pro-val-pNA per min at 25 degrees C., pH 8.0) overnight at 37 degrees C. in 50 ul volume of 10 mM TES/ 154 mM NaCl/ 0.1 mM EDTA, pH 7.4, containing 1.5 mM Ca and 1.5 mM Mg.
Lipid was extracted using the Bligh-Dyer technique (chloroform/methanol/water: 2/1.7/1), dried under nitrogen, placed under high vacuum for ˜3 hours. Samples were resuspended in 5 ul chloroform and spotted onto TLC plates. 20 ug of pure DOPE was also spotted for comparison purposes. TLC solvent system was chloroform/methanol/ammonium hydroxide (65/25/5). Plates were air dried, sprayed with molybdenate blue, then charred at 180 degrees C.
MeO-suc-ala-ala-pro-val-DOPE liposomes were incubated with 0 or 5 ug HLE for 1, 2, 4 hours, or overnight and processed as above. The peptide was cleaved by HLE in as little as 1 hour at 37 degrees C.
The conversion of MeO-suc-AAPV-DOPE to DOPE (SEQ ID NO:42) was also quantitated by ^31P-NMR. […] A small shoulder that may indicate an incomplete peptide cleavage product was also observed near the original peptide-lipid peak. Treatment with 5 micrograms of elastase/100 nmol lipid yielded 20% DOPE. Longer incubation may have lead to further digestion, though multiple lamellae and/or the surface charge of the liposome may limit the ultimate amount digested. The maximum exposed peptide-lipid for intact liposomes would occur with unilamellar vesicles. Assuming only the outer leaflet peptide-lipid in unilamellar vesicles is available for digestion, the minimal percentage conversion of exposed MeO-suc-AAPV-DOPE (SEQ ID NO:42) to DOPE in the outer leaflet lipid of this preparation was 40% (FIG. 6, dotted line). If the average number of lamellae were greater than one, the percentage conversion was even higher. […]

[3] = pH 7.4; cited from earlier work

proteinase K, sequence (P06873 106-384, species assumed): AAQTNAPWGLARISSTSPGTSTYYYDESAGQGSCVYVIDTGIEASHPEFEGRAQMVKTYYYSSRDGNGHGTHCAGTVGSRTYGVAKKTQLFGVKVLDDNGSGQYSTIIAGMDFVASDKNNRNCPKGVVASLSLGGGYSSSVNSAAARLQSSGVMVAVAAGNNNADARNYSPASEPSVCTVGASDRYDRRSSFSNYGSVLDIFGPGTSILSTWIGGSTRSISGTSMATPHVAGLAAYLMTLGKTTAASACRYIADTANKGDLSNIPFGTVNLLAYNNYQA

Structure (SMILES): CCCCCCCC/C=C\CCCCCCCC(=O)OCC(COP(=O)(O)OCCNC(=O)[C@H](C)NC(=O)[C@H](C)NC(C)=O)OC(=O)CCCCCCC/C=C\CCCCCCCC (some centres unmarked) [N-Ac-AA-DOPE, N-acetyl-alanyl-alanyl-dioleoyl phosphatidylethanolamine]
- Cleavage of N-Ac-AA-DOPE by elastase (HPLC) (Human leukocyte elastase; DOTAP/N-Ac-AA-DOPE (1:1) liposomes, 1 mg protease/100 nmol lipid): cleaved N-Ac-AA-DOPE to a similar extent
- Cleavage of N-Ac-AA-DOPE to DOPE by elastase (TLC) (Human leukocyte elastase; N-Ac-AA-DOPE SUVs, 1 mg enzyme in 0.1 ml): generated a product corresponding to DOPE
- Cleavage of N-Ac-AA-DOPE by proteinase K (HPLC) (proteinase K; DOTAP/N-Ac-AA-DOPE (1:1) liposomes, 1 mg protease/100 nmol lipid, overnight, 37° C.): cleaved N-Ac-AA-DOPE to a similar extent
- Cleavage of N-Ac-AA-DOPE by heat inactivated proteinase K (HPLC) (proteinase K; DOTAP/N-Ac-AA-DOPE liposomes, proteinase K inactivated 95° C., 1 hour): did not result in any cleavage
- Cleavage of N-Ac-ala-ala-DOPE from liposomes by proteinase K (HPLC) (proteinase K; DOTAP/N-acetyl-ala-ala-PE 1:1 SUVs, 100 nmole, 0.5 or 1.0 mg enzyme, overnight, 37 degrees C.): effected cleavage
- Conversion of N-Ac-AA-DOPE to DOPE (31P-NMR) (proteinase K; LUVs, proteinase K 1.5 mg protease/100 nmol lipid, overnight, 37° C.): appearance of a peak 0.3 ppm upfield from N-Ac-AA-DOPE, corresponding with pure DOPE
- Cleavage of N-Ac-AA-DOPE by proteinase K (TLC) (proteinase K; N-Ac-AA-DOPE liposomes, 1 mg enzyme/100 nmol lipid, overnight, 37° C.): the peptide-lipid was cleaved and DOPE was generated
- N-acetyl-ala-ala-DOPE converted to pure DOPE (31P NMR integration) (proteinase K; multilamellar liposomes of pure conjugate, 1 mg proteinase K 2 hours + equal amount another 2 hours, pH 7.4, 37° C.): approximately 20%
- Cleavage of N-Ac-ala-ala-DOPE from liposomes by pronase (HPLC) (S. griseus (“pronase”)): effected cleavage
- Cleavage of N-Ac-ala-ala-DOPE from liposomes by other proteases (HPLC) [1]: did not cleave

Structure (SMILES): CCCCCCCC/C=C\CCCCCCCC(=O)OC[C@H](COP(=O)(O)OCCNC(=O)[C@@H](NC(=O)[C@@H]1CCCN1C(=O)[C@H](C)NC(=O)[C@H](C)NC(=O)CCC(=O)OC)C(C)C)OC(=O)CCCCCCC/C=C\CCCCCCCC [MeO-suc-AAPV-DOPE, 1,2-Dioleoyl-sn-glycero-3-phosphoethanolamido-val-pro-ala-ala-sucMeO]
- DOPE yielded from MeO-suc-AAPV-DOPE (31P-NMR) ([2]; DODAP/MeO-suc-AAPV-DOPE 1:1 vesicles, 5 micrograms of elastase/100 nmol lipid, 37° C.): 20%
- Available peptide-lipid cleaved ([2]; assuming approximately 2.5 lamellae per vesicle, 5 micrograms elastase/100 nmol lipid): 100%
- Minimal percentage conversion of exposed MeO-suc-AAPV-DOPE to DOPE in the outer leaflet ([2]; assuming unilamellar vesicles, 5 micrograms elastase/100 nmol lipid): ≥ 40%

Structure (SMILES): CCCCCCCC/C=C\CCCCCCCC(=O)OCC(CN(C)C)OC(=O)CCCCCCC/C=C\CCCCCCCC (centres unmarked) [DODAP, 1-N,N-dimethylamino dioleoyl propane]
- DODAP population positively charged [3]: 20%

Source: US6339069B1, “Peptide-lipid conjugates, liposomes and lipsomal drug delivery” (Elan PharmaceuticalsTechnologies, Inc., priority 1996, dated 2002)
